Test results published in publication PMC12541554, “Production of the Antimicrobial Roseoflavin With Genetically Engineered Corynebacterium glutamicum” (Microbial Biotechnology, 2025).

How the values were obtained:
RibF^Sda = molecular target: T1, RibF^Sda (Streptomyces davaonensis, UniProt K4R340); assay: fluorescent ADP detection kinase assay, crude extract; format: biochemical; details: ATP co-substrate; crude extract of overexpressing C. glutamicum with native RibF background; 10 min
T1 construct: gene ribC1; overexpressed from pVWEx1 in C. glutamicum wild type; crude extract (host's native RibF also present)
T1 sequence (K4R340 1-319): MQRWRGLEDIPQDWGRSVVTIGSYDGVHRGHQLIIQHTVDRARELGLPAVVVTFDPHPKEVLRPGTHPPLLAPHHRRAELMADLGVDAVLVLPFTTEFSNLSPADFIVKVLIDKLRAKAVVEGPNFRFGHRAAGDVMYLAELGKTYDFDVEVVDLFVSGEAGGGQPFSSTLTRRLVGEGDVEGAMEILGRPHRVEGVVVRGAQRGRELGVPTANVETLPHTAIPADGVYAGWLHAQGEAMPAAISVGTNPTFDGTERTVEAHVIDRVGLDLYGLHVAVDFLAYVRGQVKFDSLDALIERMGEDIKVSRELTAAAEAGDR

RibF^Cg = molecular target: T2, RibF^Cg (Corynebacterium glutamicum, UniProt Q8NP47); assay: as above; format: biochemical; details: ATP co-substrate; crude extract of overexpressing C. glutamicum; 10 min
T2 construct: gene Cgl1978; overexpressed from pVWEx1 in C. glutamicum wild type; crude extract
T2 sequence (Q8NP47 1-341): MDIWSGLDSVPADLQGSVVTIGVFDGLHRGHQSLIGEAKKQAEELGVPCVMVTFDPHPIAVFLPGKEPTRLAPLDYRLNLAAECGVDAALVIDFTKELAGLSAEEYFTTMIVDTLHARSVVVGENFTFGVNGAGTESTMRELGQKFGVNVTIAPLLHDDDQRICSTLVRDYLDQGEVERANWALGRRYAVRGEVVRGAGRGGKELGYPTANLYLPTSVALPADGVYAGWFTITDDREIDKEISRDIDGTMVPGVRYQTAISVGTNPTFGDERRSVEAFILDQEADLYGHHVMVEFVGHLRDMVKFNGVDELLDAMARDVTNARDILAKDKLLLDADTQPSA

| Structure (SMILES) | fluorescent ADP detection kinase assay, crude extract (RibF^Sda) | fluorescent ADP detection kinase assay, crude extract (RibF^Cg) |
| --- | --- | --- |
| Cc1cc2nc3c(=O)[nH]c(=O)nc-3n(C[C@H](O)[C@H](O)[C@H](O)CO)c2cc1N(C)C [roseoflavin] | activity of RibF^Sda was significantly lower in the presence of RoF | overexpression of both ribF genes resulted in kinase activity when RF or RoF was added |
| Cc1cc2nc3c(=O)[nH]c(=O)nc-3n(C[C@H](O)[C@H](O)[C@H](O)CO)c2cc1C [riboflavin] | RibF^Sda also showed lower kinase activity in the presence of RF | overexpression of both ribF genes resulted in kinase activity when RF or RoF was added |
